Results taken from patent publication US20250248973A1, “CANNABINOID RECEPTOR 1 ANTAGONISTS/INVERSE AGONISTS AND USES THEREOF” (Corbus Pharmaceuticals, Inc., priority 2022, published 2025).

Key:
[1] = target: Human CB1 Receptor-1 (hCB1) (Homo sapiens (Human), UniProt P21554); assay: hCB1 Gai cyclic AMP (cAMP) TR-FRET assay, antagonism of EC80 CP55940 with forskolin; type: cell-based; details: hCB1 cells, 30 min pre-incubation
Procedure: (§1) Example 3. Biochemical Methods Human CB1 Receptor-1 (hCB1) and Human CB1 Receptor-1b (hCBib)
(§2) hCB1/hCB1 b Gai Cyclic AMP (cAMP) Assays: Cells were seeded in a 384-well plate at an appropriate density from frozen cells. The cAMP assays were performed according to the manufacturer's protocol using MULTISCREEN™ TR-FRET cAMP 1.0 No Wash Assay Kit. Cells (hCB1 or hCB1 b) were pre-incubated with customer compounds for 30 minutes at rt followed by addition of EC80 CP55940 concentration and Forskolin. Cells were then incubated for 20 minutes at 37C. The reaction was terminated by sequentially adding sequentially adding MULTISCREEN™ Eu-labeled cAMP and MULTISCREEN™ 650-labeled anti-cAMP antibody in lysis buffer. The plate was then incubated at rt for 30 minutes before reading fluorescent emissions at 620 nm and 665 with excitation at 314 nm on FlexStation III (Molecular Devices). The results are shown in Table 2 (“***” denotes an IC50<100 nM; “**” denotes an IC50 between 100 nM and 500 nM, and “*” denotes an IC50>500 nM).

[2] = target: Human CB1 Receptor-1b (hCB1b) (Homo sapiens (Human), UniProt P21554); assay: hCB1b Gai cyclic AMP (cAMP) TR-FRET assay, antagonism of EC80 CP55940 with forskolin; type: cell-based; details: hCB1b cells, 30 min pre-incubation, read-out: CB1b IC50
Procedure: as §1, §2

Human CB1 Receptor-1 (hCB1), sequence (P21554 whole entry): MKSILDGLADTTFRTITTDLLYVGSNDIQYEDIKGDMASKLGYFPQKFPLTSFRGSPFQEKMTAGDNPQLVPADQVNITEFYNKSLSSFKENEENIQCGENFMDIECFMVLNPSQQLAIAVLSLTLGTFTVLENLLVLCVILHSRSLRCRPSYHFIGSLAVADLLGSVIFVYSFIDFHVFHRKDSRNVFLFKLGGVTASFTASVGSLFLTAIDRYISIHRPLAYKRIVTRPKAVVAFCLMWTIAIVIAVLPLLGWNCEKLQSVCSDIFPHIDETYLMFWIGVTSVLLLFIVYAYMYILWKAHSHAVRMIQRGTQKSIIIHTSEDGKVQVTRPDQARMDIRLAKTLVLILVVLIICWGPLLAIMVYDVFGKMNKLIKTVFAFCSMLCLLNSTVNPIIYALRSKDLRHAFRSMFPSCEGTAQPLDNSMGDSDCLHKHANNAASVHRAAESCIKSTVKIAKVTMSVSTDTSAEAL
Human CB1 Receptor-1b (hCB1b), sequence (P21554 other isoform, or with tags, fused parts or gaps): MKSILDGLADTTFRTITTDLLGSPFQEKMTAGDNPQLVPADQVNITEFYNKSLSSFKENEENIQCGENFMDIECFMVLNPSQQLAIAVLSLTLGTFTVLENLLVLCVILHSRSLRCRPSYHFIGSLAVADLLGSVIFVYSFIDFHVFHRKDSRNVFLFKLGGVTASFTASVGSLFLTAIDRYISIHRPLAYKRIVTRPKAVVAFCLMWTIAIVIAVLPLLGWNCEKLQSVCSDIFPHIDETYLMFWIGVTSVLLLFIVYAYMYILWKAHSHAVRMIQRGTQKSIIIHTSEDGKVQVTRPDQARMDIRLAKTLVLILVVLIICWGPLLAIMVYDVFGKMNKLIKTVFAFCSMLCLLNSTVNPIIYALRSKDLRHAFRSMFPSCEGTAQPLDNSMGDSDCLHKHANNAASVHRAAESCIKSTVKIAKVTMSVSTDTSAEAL

SMILES | IC50 [1] | IC50 [2]
NS(=O)(=O)[C@H]1CC[C@@H](N/C(=N/S(=O)(=O)c2ccc(Cl)cc2)N2C[C@H](c3ccccc3)C(c3ccc(Cl)cc3)=N2)CC1 (single isomer, unassigned) [Compound 119] | > 500 nM | > 500 nM
CNS(=O)(=O)CCN/C(=N\S(=O)(=O)c1ccc(Cl)cc1)N1C[C@H](c2ccccc2)C(c2ccc(Cl)cc2)=N1 [Compound 169, (S,E)-3-(4-chlorophenyl)-N′-((4-chlorophenyl)sulfonyl)-N-(2-(N-methylsulfamoyl)ethyl)-4-phenyl-4,5-dihydro-1H-pyrazole-1-carboximidamide] | < 100 nM | < 100 nM
NS(=O)(=O)[C@H]1CC[C@H](N/C(=N/S(=O)(=O)c2ccc(Cl)cc2)N2C[C@H](c3ccccc3)C(c3ccc(F)cc3)=N2)CC1 (single isomer, unassigned) [Compound 125] | 100 to 500 nM | 100 to 500 nM
C[C@H](CS(N)(=O)=O)N/C(=N\S(=O)(=O)c1ccc(C(F)(F)F)cc1)N1C[C@H](c2ccccc2)C(c2ccc(Cl)cc2)=N1 [Compound 23, (S,E)-3-(4-chlorophenyl)-4-phenyl-N-((R)-1-sulfamoylpropan-2-yl)-N′-((4-(trifluoromethyl)phenyl)sulfonyl)-4,5-dihydro-1H-pyrazole-1-carboximidamide] | 100 to 500 nM | 100 to 500 nM
NS(=O)(=O)O[C@H]1C[C@@H](N/C(=N\S(=O)(=O)c2ccc(Cl)cc2)N2C[C@@H](c3ccccc3)C(c3ccc(Cl)cc3)=N2)C1 (single isomer, unassigned) [Compound 226] | > 500 nM | < 100 nM
NS(=O)(=O)[C@@H]1CC[C@H](N/C(=N/S(=O)(=O)c2ccc(Cl)cc2)N2C[C@H](c3ccccc3)C(c3ccc(Cl)cc3)=N2)C1 [Compound 143, (S,Z)-3-(4-chlorophenyl)-N′-((4-chlorophenyl)sulfonyl)-4-phenyl-N-((1S,3R)-3-sulfamoylcyclopentyl)-4,5-dihydro-1H-pyrazole-1-carboximidamide] | < 100 nM | < 100 nM
CN(C)S(=O)(=O)CCN/C(=N\S(=O)(=O)c1ccc(Cl)cc1)N1C[C@H](c2ccccc2)C(c2ccc(Cl)cc2)=N1 [Compound 155, (S,E)-3-(4-chlorophenyl)-N′-((4-chlorophenyl)sulfonyl)-N-(2-(N,N-dimethylsulfamoyl)ethyl)-4-phenyl-4,5-dihydro-1H-pyrazole-1-carboximidamide] | < 100 nM | < 100 nM
CN1CCN(S(=O)(=O)CCN/C(=N\S(=O)(=O)c2ccc(Cl)cc2)N2C[C@H](c3ccccc3)C(c3ccc(Cl)cc3)=N2)CC1 [Compound 157, (S,E)-3-(4-chlorophenyl)-N′-((4-chlorophenyl)sulfonyl)-N-(2-((4-methylpiperazin-1-yl)sulfonyl)ethyl)-4-phenyl-4,5-dihydro-1H-pyrazole-1-carboximidamide] | < 100 nM | 100 to 500 nM
Cn1ncc(S(=O)(=O)N=C(NCCS(N)(=O)=O)N2C[C@H](c3ccccc3)C(c3ccc(Cl)cc3)=N2)n1 [Compound 73, (S)-3-(4-chlorophenyl)-N′-((2-methyl-2H-1,2,3-triazol-4-yl)sulfonyl)-4-phenyl-N-(2-sulfamoylethyl)-4,5-dihydro-1H-pyrazole-1-carboximidamide] | 100 to 500 nM | 100 to 500 nM
NS(=O)(=O)[C@H]1CC[C@H](N/C(=N/S(=O)(=O)c2ccc(Cl)cc2)N2C[C@H](c3ccccc3)C(c3ccc(Cl)cc3)=N2)C1 (single isomer, unassigned) [Compound 139] | 100 to 500 nM | 100 to 500 nM
NS(=O)(=O)O[C@H]1C[C@@H](N/C(=N\S(=O)(=O)c2ccc(C(F)(F)F)cc2)N2C[C@@H](c3ccccc3)C(c3ccc(Cl)cc3)=N2)C1 [Compound 228, (1R,3s)-3-((R,E)-3-(4-chlorophenyl)-4-phenyl-N′-((4-(trifluoromethyl)phenyl)sulfonyl)-4,5-dihydro-1H-pyrazole-1-carboximidamido)cyclobutyl sulfamate] | > 500 nM | < 100 nM
CN1CCN(S(=O)(=O)CCN/C(=N\S(=O)(=O)c2ccc(Cl)cc2)N2C[C@H](c3ccccc3)C(c3ccc(F)cc3)=N2)CC1 [Compound 163, (S,E)-N′-((4-chlorophenyl)sulfonyl)-3-(4-fluorophenyl)-N-(2-((4-methylpiperazin-1-yl)sulfonyl)ethyl)-4-phenyl-4,5-dihydro-1H-pyrazole-1-carboximidamide] | < 100 nM | 100 to 500 nM

Other lines, results leading:

IC50 [1] | IC50 [2] | SMILES
< 100 nM | > 500 nM | C[C@H](CN/C(=N\S(=O)(=O)c1ccc(C(F)(F)F)cc1)N1C[C@H](c2ccccc2)C(c2ccc(Cl)cc2)=N1)S(N)(=O)=O [Compound 17, (S,E)-3-(4-chlorophenyl)-4-phenyl-N-((R)-2-sulfamoylpropyl)-N′-((4-(trifluoromethyl)phenyl)sulfonyl)-4,5-dihydro-1H-pyrazole-1-carboximidamide]
100 to 500 nM | 100 to 500 nM | C[C@@H](CS(N)(=O)=O)NC(=NS(=O)(=O)c1ccc(Cl)cc1)N1C[C@H](c2ccccc2)C(c2ccc(F)cc2)=N1 (single isomer, unassigned) [Compound 61]
100 to 500 nM | < 100 nM | NS(=O)(=O)[C@H]1CC[C@H](N/C(=N/S(=O)(=O)c2ccc(Cl)cc2)N2C[C@H](c3ccccc3)C(c3ccc(F)cc3)=N2)C1 [Compound 151, (S,Z)-N′-((4-chlorophenyl)sulfonyl)-3-(4-fluorophenyl)-4-phenyl-N-((1S,3S)-3-sulfamoylcyclopentyl)-4,5-dihydro-1H-pyrazole-1-carboximidamide]
< 100 nM | < 100 nM | C[C@H](CN/C(=N\S(=O)(=O)c1ccc(C(F)(F)F)cc1)N1C[C@H](c2ccccc2)C(c2ccc(F)cc2)=N1)S(N)(=O)=O (single isomer, unassigned) [Compound 47]
< 100 nM | < 100 nM | NS(=O)(=O)CCN/C(=N\S(=O)(=O)c1ccc(Cl)cc1)N1C[C@H](c2ccccc2)C(c2ccc(F)cc2)=N1 [Compound 45, (S,E)-N′-((4-chlorophenyl)sulfonyl)-3-(4-fluorophenyl)-4-phenyl-N-(2-sulfamoylethyl)-4,5-dihydro-1H-pyrazole-1-carboximidamide]
> 500 nM | 100 to 500 nM | C[C@H](CS(N)(=O)=O)N/C(=N\S(=O)(=O)c1ccc(Cl)cc1)N1CC(c2ccccc2)C(c2ccc(Cl)cc2)=N1 (stereo in doubt) [Compound 3, (R,E)-3-(4-chlorophenyl)-N′-((4-chlorophenyl)sulfonyl)-4-phenyl-N-((R)-1-sulfamoylpropan-2-yl)-4,5-dihydro-1H-pyrazole-1-carboximidamide]
< 100 nM | < 100 nM | NS(=O)(=O)CCN/C(=N\S(=O)(=O)c1ccc(F)cc1)N1C[C@H](c2ccccc2)C(c2ccc(Cl)cc2)=N1 [Compound 11, (S,E)-3-(4-chlorophenyl)-N′-((4-fluorophenyl)sulfonyl)-4-phenyl-N-(2-sulfamoylethyl)-4,5-dihydro-1H-pyrazole-1-carboximidamide]
< 100 nM | < 100 nM | C[C@@H](CN/C(=N\S(=O)(=O)c1ccc(F)cc1)N1C[C@H](c2ccccc2)C(c2ccc(Cl)cc2)=N1)S(N)(=O)=O [Compound 13, (S,E)-3-(4-chlorophenyl)-N′-((4-fluorophenyl)sulfonyl)-4-phenyl-N-((S)-2-sulfamoylpropyl)-4,5-dihydro-1H-pyrazole-1-carboximidamide]
< 100 nM | < 100 nM | C[C@@H](CN/C(=N\S(=O)(=O)c1ccc(F)cc1)N1C[C@H](c2ccccc2)C(c2ccc(F)cc2)=N1)S(N)(=O)=O [Compound 54, (S,E)-3-(4-fluorophenyl)-N′-((4-fluorophenyl)sulfonyl)-4-phenyl-N-((S)-2-sulfamoylpropyl)-4,5-dihydro-1H-pyrazole-1-carboximidamide]
> 500 nM | > 500 nM | NS(=O)(=O)[C@H]1C[C@@H](N/C(=N/S(=O)(=O)c2ccc(Cl)cc2)N2C[C@H](c3ccccc3)C(c3ccc(F)cc3)=N2)C1 (single isomer, unassigned) [Compound 129]
100 to 500 nM | 100 to 500 nM | NS(=O)(=O)[C@H]1C[C@H](N/C(=N/S(=O)(=O)c2ccc(Cl)cc2)N2C[C@H](c3ccccc3)C(c3ccc(F)cc3)=N2)C1 (single isomer, unassigned) [Compound 127]
100 to 500 nM | 100 to 500 nM | CC(C)(CN/C(=N\S(=O)(=O)c1ccc(Cl)cc1)N1C[C@H](c2ccccc2)C(c2ccc(Cl)cc2)=N1)CS(N)(=O)=O [Compound 87, (S,E)-3-(4-chlorophenyl)-N′-((4-chlorophenyl)sulfonyl)-N-(2,2-dimethyl-3-sulfamoylpropyl)-4-phenyl-4,5-dihydro-1H-pyrazole-1-carboximidamide]
